# PubChem BioAssay (NCI)
# Where “and” joins values, the source holds several entries; their conditions need not be identical. Identical values can stand only once.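 Tested at 5 concentrations; 48 h exposure; 96-well plates; endpoints linearly interpolated, else capped at highest concentration. GI50 = concentration required for 50% inhibition of growth. The concentration for full growth arrest is given as TGI.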
# Legend:
# Test in all cases: DTP human tumour cell line panel, 48 h
# NCI/ADR-RES ovarian = tested on: NCI/ADR-RES ovarian
# U251 CNS = tested on: U251 CNS
# XF 498 CNS = tested on: XF 498 CNS
# MCF7 breast = tested on: MCF7 breast
# LOX IMVI melanoma = tested on: LOX IMVI melanoma
# TK-10 renal = tested on: TK-10 renal
# MDA-MB-231 breast = tested on: MDA-MB-231 breast
# DU-145 prostate = tested on: DU-145 prostate
# PC-3 prostate = tested on: PC-3 prostate
# M14 melanoma = tested on: M14 melanoma
structure (smiles),measurement,setting,value
C=CCCCCn1c2ccccc2c2c(C)c3cnccc3c(C)c21,TGI,NCI/ADR-RES ovarian,33700 nM
same,TGI,U251 CNS,40600 nM
same,TGI,XF 498 CNS,4360 nM
same,TGI,MCF7 breast,36700 nM
same,TGI,LOX IMVI melanoma,82500 nM
CCC1(OC(=O)CN)C(=O)OCc2c1cc1n(c2=O)Cc2cc3cc4c(cc3nc2-1)OCO4 (configuration not stated),GI50,NCI/ADR-RES ovarian,< 10 nM
same,TGI,NCI/ADR-RES ovarian,231 nM and 88.9 nM
same,GI50,U251 CNS,< 10 nM
same,TGI,U251 CNS,19.5 nM
same,GI50,MCF7 breast,< 10 nM
same,TGI,MCF7 breast,> 100000 nM
same,GI50,LOX IMVI melanoma,< 10 nM
same,TGI,LOX IMVI melanoma,155 nM and 106 nM
COC(=O)[C@@H]1C=C[C@H](NC(C)=O)C1,TGI,NCI/ADR-RES ovarian,> 100000 nM
same,TGI,U251 CNS,> 100000 nM
same,TGI,MCF7 breast,> 100000 nM
same,TGI,LOX IMVI melanoma,> 100000 nM
same,TGI,TK-10 renal,> 100000 nM
same,TGI,MDA-MB-231 breast,> 100000 nM
same,TGI,DU-145 prostate,> 100000 nM
same,TGI,PC-3 prostate,> 100000 nM
same,TGI,M14 melanoma,> 100000 nM
Cn1c(=O)n(CC2CS2)c2ccccc21 (configuration not stated),TGI,XF 498 CNS,> 100000 nM
same,TGI,LOX IMVI melanoma,> 100000 nM
same,TGI,TK-10 renal,> 100000 nM
same,TGI,M14 melanoma,> 100000 nM
CC1(C)[C@@H](OC(N)=O)C=C[C@]2(CO)[C@H]3CC[C@]4(C)[C@@H](c5ccc(=O)oc5)[C@@H](Cl)C[C@]4(O)C3=CC[C@@H]12,GI50,NCI/ADR-RES ovarian,< 0.1 nM
same,TGI,NCI/ADR-RES ovarian,12.7 nM
same,GI50,U251 CNS,4.3 nM
same,TGI,U251 CNS,15.8 nM
same,GI50,MCF7 breast,< 0.1 nM
same,TGI,MCF7 breast,29.9 nM
same,GI50,LOX IMVI melanoma,2.09 nM
same,TGI,LOX IMVI melanoma,10.6 nM
same,GI50,MDA-MB-231 breast,17 nM and 2.5 nM
same,TGI,MDA-MB-231 breast,58.8 nM and 159 nM
same,GI50,DU-145 prostate,< 0.1 nM
same,TGI,DU-145 prostate,1.17 nM
same,GI50,PC-3 prostate,1.89 nM
same,TGI,PC-3 prostate,13.7 nM
same,GI50,M14 melanoma,13.1 nM
same,TGI,M14 melanoma,29.7 nM
CCN(CCCl)c1cccc(NC(=O)c2ccc(C(=O)Nc3cccc(CN(C)C)c3)cc2)c1,TGI,NCI/ADR-RES ovarian,> 100000 nM
same,TGI,U251 CNS,4080 nM
same,TGI,MCF7 breast,1090 nM
same,TGI,LOX IMVI melanoma,177 nM
same,TGI,TK-10 renal,779 nM
same,TGI,DU-145 prostate,12200 nM
same,TGI,PC-3 prostate,1020 nM
same,TGI,M14 melanoma,860 nM
C=C(C)[C@@H]1CC[C@]2(CO)CC[C@]3(C)[C@H](CC[C@@H]4[C@@](C)(CCCN)[C@H](C(=C)C)CC[C@]43C)[C@@H]12,GI50,TK-10 renal,1770 nM
same,TGI,TK-10 renal,3390 nM
same,GI50,MDA-MB-231 breast,1750 nM
same,TGI,MDA-MB-231 breast,3190 nM
same,GI50,DU-145 prostate,1680 nM
same,TGI,DU-145 prostate,3060 nM
same,GI50,PC-3 prostate,1550 nM
same,TGI,PC-3 prostate,3090 nM
CCN(CC)/[N+]([O-])=N/O,TGI,XF 498 CNS,> 100000 nM
same,TGI,LOX IMVI melanoma,> 100000 nM
same,TGI,TK-10 renal,> 100000 nM
same,TGI,M14 melanoma,> 100000 nM
